mortality, LD50 and LC50 data for twelve compounds are collected here from US4570005A, “Process for the preparation of 2-arylpropyl ether or thioether derivatives” (priority 1980, dated 1986).

Like-named read-outs stand apart in the source and are kept apart here.

For data set [1], the system named is tobacco cutworm. Briefly: Test 1: Effect on Tobacco Cutworm (leaf immersion), mortality after 24 hours. Type of data set: in vivo. The conditions noted are these: second-instar larvae, 25° C. The method in brief: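 Sweet-potato leaves dipped 10 s in emulsifiable concentrate diluted to 100 or 20 ppm, air-dried, then exposed to second-instar larvae at 25 °C. Mortality counted after 24 h, averaged over three cups.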

Data set [2] concerns resistant green rice leafhopper (collected at Nakagawara). Briefly: Test 3: Effect on Resistant Green Rice Leafhopper (collected at Nakagawara). The note with it: Nephotettix cincticeps, 24 h, read-out: Mortality (%), Green Rice Leafhopper Collected at Nakagawara. Type of data set: in vivo, Nephotettix cincticeps Uhler (Green rice leafhopper). The method in brief: (§1)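 Emulsifiable concentrate diluted to 100 or 20 ppm was sprayed, 3 ml per pot, onto hydroponic rice seedlings at 2–3 leaves. After air-drying, 10 female adults of the Nakagawara (resistant) or Chigasaki (sensitive) strain were released per caged pot. Mortality was counted at 24 h and averaged over three pots.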

Data set [3] relates to sensitive green rice leafhopper (collected at Chigasaki). Briefly: whole plant or invertebrate. Type of data set: in vivo. The note with it: Nephotettix cincticeps, sensitive female adults, 24 hours, read-out: Mortality (%), Green Rice Leafhopper Collected at Chigasaki. The method in brief:
as §1

The test system of the next data set is green peach aphid. Briefly: Test 5: Effect on Green Peach Aphid. Type of data set: in vivo. The conditions noted are these: Myzus persicae, read-out: Insecticidal Activity. As to the method:
(§2) To a mixture of 20 parts of the compound of the present invention and 20 parts of Sorpol SM-200 (registered tradename for the product supplied by Toho Chemical Industrial Co., Ltd.) was added 60 parts of xylol, and the mixture was suffciently blended. The obtained emulsifiable concentrate was diluted at a predetermined concentration with distilled water, and the obtained dilution was used.
Seedlings (having 3 to 4 leaves) of an eggplant grown on a pot were inoculated with green peach aphids and the insects were allowed to grow. The number of the insects was counted. A chemical dilution having a concentration of 100 ppm, prepared in the same manner as described in Test 1, was applied with a spray gun at a rate of 10 ml per pot. Then, the pot was placed in a glass green house. After 24 hours, the number of living insects was counted and the mortality was calculated.
The test was made on three pots, and the average value was calculated. In Table 6, mark "A" indicates a mortality higher than 95%, mark "B" indicates a mortality of 80 to 95%, mark "C" indicates a mortality of 50 to 80%, and mark "D" indicates a mortality lower than 50%.

The nature of data set [4]: Test 9: Toxicity Test (acute oral toxicity, mice). The note with it: mouse, in vivo, po. As to the method:
A predetermined amount of a solution or suspension of a test compound in corn oil was orally administered to male mice having a body weight of 19 to 23 g (0.2 ml per 10 g of the body weight). After 7 days, the number of killed mice was counted and the influences on the mice were examined.

For a further data set, the system named is diamond back moth. Briefly: Test 4: Effect on Diamond Back Moth. The note with it: Plutella, third-instar larvae, 24 hours, read-out: Mortality (%). Type of data set: in vivo. The method in brief: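 Compound formulated as an emulsifiable concentrate, diluted in water to 100 or 20 ppm and sprayed at 3 ml per cup onto cabbage leaves holding 10 third-instar larvae. Mortality counted after 24 hours; mean of three cups.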

Another data set concerns German cockroach. Description: Test 7: Effect on German Cockroach. The format is in vivo. The conditions noted are these: Blattella germanica, male adults, agonized and killed after 24 hours, read-out: Mortality (%); for mortality at 10 mg/m2: 10 mg/m^2; for mortality at 50 mg/m2: 50 mg/m^2. As to the method: as §2
The bottom face of a high Petri dish having a diameter of 9 cm and a height of 9 cm was treated with 50 or 10 mg/m^2 of a test compound and the dish was air-dried. In order to prevent the adults from escaping from the dish, the inner wall of the dish was treated with butter. Then, 10 male adults of German cockroach were set free in each dish, and the dish was placed in a thermostat chamber maintained at 25° C. After 24 hours, the number of agonized and killed adults was counted. The test was made on two dishes and the average value was calculated.

For data set [5], the system named is tobacco cutworm. Briefly: Test 2: Tobacco Cutworm Larva Dipping Test, mortality after 24 hours. Type of data set: in vivo. The conditions noted are these: 24 hours. As to the method:
as §2
A dilution having a chemical concentration of 100 or 20 ppm was prepared in the same manner as described in Test 1.
Second-instar and fifth-instar larvae of tobacco cutworm were dipped in the dilution for 5 seconds, and the excessive dilution was removed by a filter paper. Then, the larvae were set free in a plastic cup and an artificial diet was supplied thereto. The cup was allowed to stand still in a thermostat chamber maintained at 25° C. After 24 hours, the numbers of the killed and living larvae were counted and the mortality was calculated. The test was made on three cups and the result was expressed by an average value.

The next data set is described as follows: Test 8: Fish Toxicity. The conditions noted are these: carp, water; concentration at which 1/2 of the test fishes were killed within 48 hours; read-out: Fish Toxicity, TLm48. Type of data set: in vivo. As to the method: A water tank having a width of 60 cm, a length of 30 cm and a height of 40 cm was filled with water, and 10 yearling carps having a body length of about 5 cm were set free in the tank and adapted to the environment in the tank. A test compound was applied so that the concentration in water was 10, 1 or 0.1 ppm. After 48 hours, the numbers of killed and living carps were counted and the influences on the fishes were examined.

Setting [6] is: 100 ppm, mortality class, 24 hours.
Setting [7] is: fifth-instar larvae, read-out: Motality (%), Fifth-Instar Larvae.
Setting [8] is: second-instar larvae, read-out: Motality (%), Second-Instar Larvae.

Usually LD50 stands for the dose at which mortality reaches 50%. The low end stands for greater toxicity, the high end for lower toxicity. Take `CCOc1ccc(C(C)(CC)COCc2cccc(Oc3ccccc3)c2)cc1` (centres unmarked) [Compound 103, 3-Phenoxybenzyl 2-(4-ethoxyphenyl)-2-ethylpropyl ether]: the mortality at 20 ppm (in the data set on tobacco cutworm [1]; in data set [2]; in data set [3]) was 100% throughout. The mortality at 100 ppm was 100% in the data set with tobacco cutworm [1], 100% in [2], 100% in data set [3] and above 95% with green peach aphid (setting [6]). Also, the LD50 at 168 h in data set [4] is above 500 mg/kg.
For `CC(C)(COCc1cccc(Oc2ccccc2F)c1)c1ccc(Cl)cc1` [Compound 14], the mortality at 20 ppm (in the data set with tobacco cutworm [1]; in [2]; in [3]; in the data set on diamond back moth) was 100% throughout. Further, the mortality at 100 ppm with tobacco cutworm [1] was 100%; in [2], 100%; in data set [3], 100%; in the data set on diamond back moth, 100%; in the data set on green peach aphid (setting [6]) it was above 95%. The mortality at 10 mg/m2 in the data set on German cockroach was 100%. In the data set with German cockroach, the mortality at 50 mg/m2 was 100%. This compound had an LD50 at 168 h in data set [4] above 500 mg/kg.
`CCOc1ccc(C(C)(C)COCc2cccc(Oc3ccccc3)c2)cc1OCC` [Compound 93, 3-Phenoxybenzyl 2-(3,4-diethoxyphenyl)-2-methylpropyl ether]: the mortality at 20 ppm in the data set on tobacco cutworm [1] came to 100%; in data set [2] it was 100%; in data set [3], 75%. For the same compound, the mortality at 100 ppm with tobacco cutworm [1] is 100%; in [2] it was 100%; in data set [3], 100%; in the data set on green peach aphid (setting [6]) it was above 95%. In addition, the mortality at 10 mg/m2 in the data set on German cockroach is 100%. The mortality at 50 mg/m2 in the data set on German cockroach was found to be 100%. The compound also showed an LD50 at 168 h in data set [4] above 500 mg/kg.
For the compound `Cc1ccc(C(C)(C)COCc2cccc(Oc3ccc(F)cc3)c2)cc1` [Compound 3, 3-(4-Fluorophenoxy)benzyl 2-(4-methylphenyl)-2-methylpropyl ether], the mortality at 20 ppm in the data set on tobacco cutworm [1] was 83%; in the data set on tobacco cutworm [5] (setting [7]), 60%; with tobacco cutworm [5] (setting [8]) it was 70%; in data set [2], 100%; in data set [3], 100%. Moreover, the mortality at 100 ppm was 100% in the data set with tobacco cutworm [1]; 70% in the data set with tobacco cutworm [5] (setting [7]); 90% in the data set with tobacco cutworm [5] (setting [8]); 100% in data set [2]; 100% in data set [3]; above 95% with green peach aphid (setting [6]). In [4], this compound showed an LD50 at 168 h above 500 mg/kg.
For the compound `CC(C)(COCc1cccc(Oc2ccccc2)c1)c1cccc(C(F)(F)F)c1` [Compound 39, 3-Phenoxybenzyl 2-(3-trifluoromethylphenyl)-2-methylpropyl ether], the mortality at 20 ppm came out at 90% with tobacco cutworm [1], 100% in data set [2] and 100% in data set [3]. Moreover, the mortality at 100 ppm with tobacco cutworm [1] is 100%; in [2], 100%; in [3], 100%; in the data set with green peach aphid (setting [6]) it was above 95%. Also, the mortality at 10 mg/m2 in the data set on German cockroach was 90%. In the data set on German cockroach, the mortality at 50 mg/m2 came to 100%. The same compound showed an LD50 at 168 h in [4] above 500 mg/kg.
As to `CC(C)(COCc1cccc(Oc2ccccc2)c1)c1ccc2ccccc2c1` [Compound 31, 3-Phenoxybenzyl 2-(2-naphthyl)-2-methylpropyl ether], in data set [2], the mortality at 20 ppm amounted to 100% and the mortality at 100 ppm is 100%. In [3], the mortality at 20 ppm is 100% and the mortality at 100 ppm was 100%. For the same compound, in the data set on German cockroach, the mortality at 10 mg/m2 stood at 100% and the mortality at 50 mg/m2 amounted to 100%. In “Test 8: Fish Toxicity”, the LC50 at 48 h is above 10 µg/mL. In data set [4], this compound showed an LD50 at 168 h above 500 mg/kg.
In the case of `COC(C)c1ccc(C(C)(C)COCc2cccc(Oc3ccccc3)c2)cc1` (centres unmarked) [Compound 86, 3-Phenoxybenzyl 2[4-(1-methoxyethyl)phenyl]-2-methylpropyl ether], the mortality at 100 ppm in the data set with green peach aphid (setting [6]) was in the range of 80 to 95%. The LD50 at 168 h in [4] was above 500 mg/kg.
With `CCOc1ccc(C(C)(C)COCc2cccc(Oc3ccccc3)c2)cc1Cl` [Compound 78, 3-Phenoxybenzyl 2-(3-chloro-4-ethoxyphenyl)-2-methylpropyl ether], the mortality at 20 ppm (in the data set on tobacco cutworm [1]; in data set [2]; in data set [3]; with diamond back moth) was 100% throughout. The mortality at 100 ppm in the data set on tobacco cutworm [1] is 100%; in [2] it was 100%; in [3], 100%; in the data set on diamond back moth, 100%; in the data set on green peach aphid (setting [6]), above 95%. This compound also displayed an LD50 at 168 h in data set [4] above 500 mg/kg.
On to `C#Cc1ccc(C(C)(C)COCc2cccc(Oc3ccccc3)c2)cc1` [Compound 96, 3-Phenoxybenzyl 2-(4-ethynylphenyl)-2-methylpropyl ether], for which the mortality at 20 ppm in [2] was determined as 90%; in [3] it was 60%. Besides, the results for the mortality at 100 ppm (in data set [2]; in data set [3]; in the data set on green peach aphid (setting [6])) were 100%, 100% and 80 to 95%, respectively. In data set [4], this compound showed an LD50 at 168 h above 500 mg/kg.
Turning to `CC(C)(COCc1cccc(C(=O)c2ccccc2)c1)c1ccc(Cl)cc1` [Compound 22, 3-Benzoylbenzyl 2-(4-chlorophenyl)-2-methylpropyl ether], in data set [2], the mortality at 20 ppm is 80% and the mortality at 100 ppm is 100%. In addition, in data set [3], the mortality at 20 ppm turned out to be 50% and the mortality at 100 ppm was 100%. Moreover, in the data set with German cockroach, the mortality at 10 mg/m2 was 90% and the mortality at 50 mg/m2 stood at 100%. Further, the LC50 at 48 h in the data set “Test 8: Fish Toxicity” was above 10 µg/mL. The LD50 at 168 h in [4] is above 500 mg/kg.
Regarding `CCOc1ccc(C(C)(C)CSCc2cccc(Oc3ccccc3)c2)cc1` [Compound 95], the mortality at 20 ppm (in the data set with tobacco cutworm [1]; in data set [2]; in [3]) was 100% in each case. Also, the mortality at 100 ppm in the data set on tobacco cutworm [1] was 100%; in [2], 100%; in data set [3] it was 100%; in the data set with green peach aphid (setting [6]), above 95%. This compound also gave an LD50 at 168 h in data set [4] above 500 mg/kg.
With `COP(=O)(NC(C)=O)SC` (centres unmarked) [Comparative Compound (h), O,S-dimethyl N-acetylphosphoroamidothiolate, reference compound], the mortality at 100 ppm with green peach aphid (24 h) was in the range of 80 to 95%.
